Data: PubChem BioAssay AID248 (DTP/NCI, 2004)
Where “and” joins values, the source holds several entries; their conditions need not be identical. Equal values may be shown once. Toxic doses and inconclusive results are not listed. No stated cut-off is given here; in the data, active means T/C of 150% or more; inactive means T/C below 125%.

Test system: L1210 leukemia ip in BDF1 mice, survival T/C
Test: NCI In Vivo Anticancer Drug Screen. Data for tumor model L1210 Leukemia (intraperitoneal) in B6D2F1 (BDF1) mice
Details: endpoint: mean survival time, higher = longer survival
Procedure, shortened: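 Mice bearing the transplanted tumor received compound or vehicle. Survival of the treated group was divided by that of the vehicle-treated control group to give the ratio.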

[1] = dose: 25.0 mg/kg/injection, schedule: Q01DX001 (ip), vehicle: saline with Tween-80
[2] = dose: 100.0 mg/kg/injection, schedule: Q04DX002 (ip), vehicle: saline
[3] = dose: 200.0 mg/kg/injection, schedule: Q04DX002 (ip), vehicle: saline
[4] = dose: 100.0 mg/kg/injection, schedule: Q01DX001 (ip), vehicle: carboxymethylcellulose (CMC)
[5] = dose: 200.0 mg/kg/injection, schedule: Q01DX001 (ip), vehicle: carboxymethylcellulose (CMC)
[6] = dose: 400.0 mg/kg/injection, schedule: Q01DX001 (ip), vehicle: carboxymethylcellulose (CMC)
[7] = dose: 100.0 mg/kg/injection, schedule: Q04DX003 (ip), vehicle: Klucel (hydroxypropylcellulose) (HPC)
[8] = dose: 200.0 mg/kg/injection, schedule: Q04DX003 (ip), vehicle: Klucel (hydroxypropylcellulose) (HPC)
[9] = dose: 400.0 mg/kg/injection, schedule: Q04DX003 (ip), vehicle: Klucel (hydroxypropylcellulose) (HPC)
[10] = dose: 400.0 mg/kg/injection, schedule: Q04DX002 (ip), vehicle: saline
[11] = dose: 50.0 mg/kg/injection, schedule: Q01DX009 (ip), vehicle: Klucel (hydroxypropylcellulose) (HPC)
[12] = dose: 100.0 mg/kg/injection, schedule: Q01DX009 (ip), vehicle: Klucel (hydroxypropylcellulose) (HPC)
[13] = dose: 200.0 mg/kg/injection, schedule: Q01DX009 (ip), vehicle: Klucel (hydroxypropylcellulose) (HPC)
[14] = dose: 25.0 mg/kg/injection, schedule: Q04DX003 (ip), vehicle: saline with Tween-80
[15] = dose: 50.0 mg/kg/injection, schedule: Q01DX009 (ip), vehicle: saline with Tween-80
[16] = dose: 100.0 mg/kg/injection, schedule: Q01DX009 (ip), vehicle: saline with Tween-80
[17] = dose: 200.0 mg/kg/injection, schedule: Q01DX009 (ip), vehicle: saline with Tween-80
[18] = dose: 100.0 mg/kg/injection, schedule: Q04DX003 (ip), vehicle: saline with Tween-80
[19] = dose: 200.0 mg/kg/injection, schedule: Q04DX003 (ip), vehicle: saline with Tween-80
[20] = dose: 400.0 mg/kg/injection, schedule: Q04DX003 (ip), vehicle: saline with Tween-80
[21] = dose: 400.0 mg/kg/injection, schedule: Q01DX009 (ip), vehicle: saline with Tween-80

Measured: T/C

Nc1nc2c(ncn2-c2ccc(OCCCc3ccccc3)cc2)c(=O)[nH]1
inactive: dose: 1.56 mg/kg/injection, schedule: Q01DX001 (ip), vehicle: saline with Tween-80 97 % of control | dose: 3.13 mg/kg/injection, schedule: Q01DX001 (ip), vehicle: saline with Tween-80 92 % of control | dose: 6.25 mg/kg/injection, schedule: Q01DX001 (ip), vehicle: saline with Tween-80 94 % of control and 87 % of control | [1] 92 % of control and 91 % of control

CN(C)/C=C1\CCOC1=O
inactive: [2] 101 % of control | [3] 119 % of control

CN(Cc1ccccc1)c1ccc(SC#N)cc1
inactive: dose: 100.0 mg/kg/injection, schedule: Q01DX001 (ip), vehicle: saline 98 % of control | dose: 200.0 mg/kg/injection, schedule: Q01DX001 (ip), vehicle: saline 104 % of control

COC(=O)C(Br)C(Br)c1cc(OC)c(OC)c(OC)c1 (stereo not drawn)
inactive: [4] 89 % of control | [5] 93 % of control | [6] 103 % of control

NC(=O)C(N)Cc1ccc(O)c(O)c1 (stereo not drawn)
inactive: dose: 100.0 mg/kg/injection, schedule: Q01DX009 (ip), vehicle: saline 107 % of control | dose: 100.0 mg/kg/injection, schedule: Q04DX003 (ip), vehicle: saline 102 % of control | dose: 200.0 mg/kg/injection, schedule: Q01DX009 (ip), vehicle: saline 102 % of control | dose: 200.0 mg/kg/injection, schedule: Q04DX003 (ip), vehicle: saline 98 % of control | dose: 400.0 mg/kg/injection, schedule: Q01DX009 (ip), vehicle: saline 109 % of control | dose: 400.0 mg/kg/injection, schedule: Q04DX003 (ip), vehicle: saline 115 % of control | dose: 800.0 mg/kg/injection, schedule: Q01DX009 (ip), vehicle: saline 103 % of control and 114 % of control | dose: 1600.0 mg/kg/injection, schedule: Q01DX009 (ip), vehicle: saline 104 % of control

C/C=C/C[P+](Cc1cccc(C)c1)(c1ccccc1)c1ccccc1
inactive: dose: 3.13 mg/kg/injection, schedule: Q01DX009 (ip), vehicle: saline with Tween-80 107 % of control | dose: 6.25 mg/kg/injection, schedule: Q01DX009 (ip), vehicle: saline with Tween-80 113 % of control | dose: 12.5 mg/kg/injection, schedule: Q01DX009 (ip), vehicle: saline with Tween-80 98 % of control

Clc1ccc(C(c2ccc(Cl)cc2)C(Cl)Cl)cc1
inactive: [7] 98 % of control | [8] 98 % of control | [9] 98 % of control

CCOc1ccc(Cl)cc1Cl
inactive: [2] 109 % of control | [3] 113 % of control | [10] 106 % of control

COc1c(C(C)(C)C)cc(/C=C(\NC(=O)c2ccccc2)C(=O)O)cc1C(C)(C)C
inactive: dose: 100.0 mg/kg/injection, schedule: Q01DX001 (ip), vehicle: Klucel (hydroxypropylcellulose) (HPC) 98 % of control | dose: 200.0 mg/kg/injection, schedule: Q01DX001 (ip), vehicle: Klucel (hydroxypropylcellulose) (HPC) 92 % of control

O=C(Nc1ccccc1)Nc1ccc(Cl)cc1Cl
inactive: dose: 12.5 mg/kg/injection, schedule: Q04DX002 (ip), vehicle: other 107 % of control | dose: 25.0 mg/kg/injection, schedule: Q04DX002 (ip), vehicle: other 93 % of control | dose: 50.0 mg/kg/injection, schedule: Q04DX002 (ip), vehicle: other 90 % of control | dose: 100.0 mg/kg/injection, schedule: Q04DX002 (ip), vehicle: other 96 % of control

CC(=O)Nn1cnc2ccccc2c1=O
inactive: [11] 98 % of control | [12] 98 % of control | [13] 98 % of control

CCCCCCCCCCCCCCCCCC1=NCC[N+]1(CCO)Cc1ccccc1 (stereo not drawn) (tested in a mixture with another compound)
inactive: dose: 12.5 mg/kg/injection, schedule: Q04DX003 (ip), vehicle: saline with Tween-80 98 % of control | [14] 101 % of control

C/C(=C/C=C(/C)C(=O)O)C(=O)O
inactive: [4] 95 % of control | [7] 101 % of control | [5] 95 % of control | [8] 115 % of control | [6] 98 % of control | [9] 93 % of control

CC(=O)C1=CCCCC1
inactive: [7] 96 % of control | [8] 105 % of control | [9] 93 % of control

Cc1ccc(NC(=O)c2ccc(C(=O)Nc3ccc(C)cc3)cc2)cc1
inactive: dose: 56.0 mg/kg/injection, schedule: Q01DX Z (ip), vehicle: carboxymethylcellulose (CMC) 88 % of control | dose: 225.0 mg/kg/injection, schedule: Q01DX Z (ip), vehicle: carboxymethylcellulose (CMC) 92 % of control

Cn1c(/C=C/c2ccccc2)c([N+](=O)[O-])c(=O)n(C)c1=O
inactive: [15] 106 % of control | [16] 98 % of control | [17] 98 % of control

NS(=O)(=O)c1ccc(N=Nc2ncc[nH]2)cc1
inactive: [11] 94 % of control | [12] 94 % of control | [13] 94 % of control

COc1ccc([I+]c2ccccc2)cc1
inactive: dose: 6.25 mg/kg/injection, schedule: Q04DX003 (ip), vehicle: saline 98 % of control | dose: 9.0 mg/kg/injection, schedule: Q01DX009 (ip), vehicle: saline 104 % of control | dose: 12.5 mg/kg/injection, schedule: Q04DX003 (ip), vehicle: saline 101 % of control | [1] 102 % of control | dose: 25.0 mg/kg/injection, schedule: Q01DX009 (ip), vehicle: saline with Tween-80 102 % of control | [14] 98 % of control | dose: 25.0 mg/kg/injection, schedule: Q04DX003 (ip), vehicle: saline 109 % of control | dose: 36.0 mg/kg/injection, schedule: Q04DX003 (ip), vehicle: saline 95 % of control | dose: 50.0 mg/kg/injection, schedule: Q01DX001 (ip), vehicle: saline with Tween-80 102 % of control | [15] 111 % of control | dose: 50.0 mg/kg/injection, schedule: Q04DX003 (ip), vehicle: saline with Tween-80 93 % of control | dose: 100.0 mg/kg/injection, schedule: Q01DX001 (ip), vehicle: saline with Tween-80 98 % of control | [16] 105 % of control | [18] 97 % of control

CC(C)CC(C)NCC(C)OC(=O)c1ccc(N)cc1 (stereo not drawn)
inactive: dose: 75.0 mg/kg/injection, schedule: Q01DX001 (ip), vehicle: other 110 % of control

O/N=C/c1c(I)cc(I)c(O)c1I
inactive: [12] 101 % of control | [13] 106 % of control | dose: 400.0 mg/kg/injection, schedule: Q01DX009 (ip), vehicle: Klucel (hydroxypropylcellulose) (HPC) 90 % of control

COc1ccc(C2(C(=O)O)CC2)cc1
inactive: [18] 96 % of control | [19] 97 % of control | [20] 94 % of control

CCC(C)OC(=O)Nc1cccc(O)c1 (stereo not drawn)
inactive: [16] 91 % of control | [17] 89 % of control | [21] 90 % of control

Cc1c2c(ccc3ccccc32)cc2cccc[n+]12
inactive: dose: 2.0 mg/kg/injection, schedule: Q01DX Z (ip), vehicle: saline 101 % of control | dose: 4.0 mg/kg/injection, schedule: Q01DX Z (ip), vehicle: saline 116 % of control

O=C(NCCNC(=O)c1cccc([N+](=O)[O-])c1O)c1cccc([N+](=O)[O-])c1O
inactive: [18] 96 % of control | [19] 95 % of control | [20] 90 % of control

Cc1cccc(C)c1NC(=O)Nc1ccc(CCO)cc1
inactive: [12] 97 % of control | [13] 98 % of control

CC(=O)CSc1sc(C(C)=O)c(N)c1C#N
inactive: [16] 91 % of control | [17] 91 % of control | [21] 90 % of control

O=S(=O)(Nc1cc(C(F)(F)F)ccc1Cl)c1ccc(Cl)cc1
inactive: [2] 90 % of control | [3] 106 % of control | [10] 97 % of control
